# Source: ChEMBL document CHEMBL2177083, “Enhanced in vitro biological activity of synthetic 2-(2-pyridyl) ethyl isothiocyanate compared to natural 4-(methylsulfinyl) butyl isothiocyanate” (J Med Chem, 2012)
# Activity calls are given as the source filed them. The rule behind the calls is not given here.
# Legend:
# PC-3 [1] = test: Increase in one carbon pool by folate related gene expression in human PC3 cells at 10 uM incubated for 8 hrs by Affymetrix human exon array relative to untreated control; type: functional
# PC-3 [2] = test: Increase in prostate cancer related gene expression in human PC3 cells at 10 uM incubated for 8 hrs by Affymetrix human exon array relative to untreated control; type: functional
# PC-3 [3] = test: Cytotoxicity against human PC3 cells incubated for 24 hrs by WST1 dye reduction assay; details: PC-3, 24 h
# PC-3 [4] = test: Increase in systemic lupus erythematosus related gene expression in human PC3 cells at 10 uM incubated for 8 hrs by Affymetrix human exon array relative to untreated control; type: functional
# PC-3 [5] = test: Increase in epithelial cell signaling in Helicobacter pylori infection related gene expression in human PC3 cells at 10 uM incubated for 8 hrs pre-treated for 1 hr with 50 uM PI3K inhibitor LY294002 by Affymetrix human exon array relative to untreated control; type: functional
# [6] = Antiproliferative activity against human PNT1A cells at 50 uM incubated for 24 hrs by BrdU incorporation assay; type: cell-based
# PNT1A [7] = test: Increase in systemic lupus erythematosus related gene expression in human PNT1A cells at 10 uM incubated for 8 hrs by Affymetrix human exon array relative to untreated control; type: functional
# HepG2 = test: Cytotoxicity against human HepG2 cells incubated for 24 hrs by WST1 dye reduction assay; details: HepG2, 24 h
# PNT1A [8] = test: Increase in axon guidance related gene expression in human PNT1A cells at 10 uM incubated for 8 hrs by Affymetrix human exon array relative to untreated control; type: functional
# PC-3 [9] = test: Increase in aminoacyl-tRNA biosynthesis related gene expression in human PC3 cells at 10 uM incubated for 8 hrs by Affymetrix human exon array relative to untreated control; type: functional
# PC-3 [10] = test: Inhibition of cell proliferation of human PC3 cells at 10 uM incubated for 24 hrs by BrdU incorporation assay; type: functional; details: PC-3, 24 h
# PC-3 [11] = test: Increase in p53 signaling pathway related gene expression in human PC3 cells at 10 uM incubated for 8 hrs by Affymetrix human exon array relative to untreated control; type: functional
# PC-3 [12] = test: Increase in base excision repair related gene expression in human PC3 cells at 10 uM incubated for 8 hrs by Affymetrix human exon array relative to untreated control; type: functional
# PC-3 [13] = test: Increase in glycolysis/gluconeogenesis related gene expression in human PC3 cells at 10 uM incubated for 8 hrs by Affymetrix human exon array relative to untreated control; type: functional
# PC-3 [14] = test: Increase in pyrimidine metabolism related gene expression in human PC3 cells at 10 uM incubated for 8 hrs by Affymetrix human exon array relative to untreated control; type: functional
# DU-145 = test: Cytotoxicity against human DU145 cells incubated for 24 hrs by WST1 dye reduction assay; details: DU-145, 24 h
# PC-3 [15] = test: Increase in homologous recombination related gene expression in human PC3 cells at 10 uM incubated for 8 hrs by Affymetrix human exon array relative to untreated control; type: functional
# PC-3 [16] = test: Increase in ErbB signaling pathway related gene expression in human PC3 cells at 10 uM incubated for 8 hrs by Affymetrix human exon array relative to untreated control; type: functional
# PC-3 [17] = test: Increase in small cell lung cancer related gene expression in human PC3 cells at 10 uM incubated for 8 hrs by Affymetrix human exon array relative to untreated control; type: functional
# PC-3 [18] = test: Increase in glioma related gene expression in human PC3 cells at 10 uM incubated for 8 hrs by Affymetrix human exon array relative to untreated control; type: functional
# PNT1A [19] = test: Increase in apoptosis related gene expression in human PNT1A cells at 10 uM incubated for 8 hrs by Affymetrix human exon array relative to untreated control; type: functional
# PNT1A [20] = test: Increase in glutathione metabolism related gene expression in human PNT1A cells at 10 uM incubated for 8 hrs by Affymetrix human exon array relative to untreated control; type: functional
# PC-3 [21] = test: Increase in colorectal cancer related gene expression in human PC3 cells at 10 uM incubated for 8 hrs by Affymetrix human exon array relative to untreated control; type: functional
# PC-3 [22] = test: Induction of p21 protein expression in human PC3 cells at 10 uM incubated for 8 hrs by Western blotting in presence of 50 uM PI3K inhibitor LY294002 relative to untreated control; type: functional
# PC-3 [23] = test: Increase in DNA replication related gene expression in human PC3 cells at 10 uM incubated for 8 hrs by Affymetrix human exon array relative to untreated control; type: functional
# PC-3 [24] = test: Increase in ABC transporters related gene expression in human PC3 cells at 10 uM incubated for 8 hrs by Affymetrix human exon array relative to untreated control; type: functional
# PC-3 [25] = test: Increase in alanine and aspartate metabolism related gene expression in human PC3 cells at 10 uM incubated for 8 hrs by Affymetrix human exon array relative to untreated control; type: functional
# [26] = Induction of p21 protein expression in human PNT1A cells at 10 uM incubated for 8 hrs by Western blotting; type: cell-based
# PC-3 [27] = test: Increase in cell cycle related gene expression in human PC3 cells at 10 uM incubated for 8 hrs by Affymetrix human exon array relative to untreated control; type: functional
# PC-3 [28] = test: Increase in lysine degradation related gene expression in human PC3 cells at 10 uM incubated for 8 hrs by Affymetrix human exon array relative to untreated control; type: functional
# PC-3 [29] = test: Increase in apoptosis gene expression in human PC3 cells at 10 uM incubated for 8 hrs by Affymetrix human exon array relative to untreated control; type: functional
# PC-3 [30] = test: Increase in nucleotide excision repair related gene expression in human PC3 cells at 10 uM incubated for 8 hrs by Affymetrix human exon array relative to untreated control; type: functional
# PC-3 [31] = test: Increase in mismatch repair related gene expression in human PC3 cells at 10 uM incubated for 8 hrs by Affymetrix human exon array relative to untreated control; type: functional
# PNT1A [32] = test: Increase in glycine, serine, and threonine metabolism related gene expression in human PNT1A cells at 10 uM incubated for 8 hrs by Affymetrix human exon array relative to untreated control; type: functional
# Caco-2 = test: Cytotoxicity against human Caco2 cells incubated for 24 hrs by WST1 dye reduction assay; details: Caco-2, 24 h
# [33] = Binding affinity to insulin A chain N-terminal pentapeptide assessed as compound-insulin adduct formation by LC-MS method
# PC-3 [34] = test: Increase in TGF-beta signaling pathway related gene expression in human PC3 cells at 10 uM incubated for 8 hrs by Affymetrix human exon array relative to untreated control; type: functional
# PC-3 [35] = test: Increase in chronic myeloid leukemia related gene expression in human PC3 cells at 10 uM incubated for 8 hrs by Affymetrix human exon array relative to untreated control; type: functional
# [36] = Binding affinity to insulin B chain N-terminal pentapeptide assessed as compound-insulin adduct formation by LC-MS method
# PC-3 [37] = details: Homo sapiens, 25 uM
# Description: Inhibition of cell proliferation of human PC3 cells at 25 uM incubated for 24 hrs by BrdU incorporation assay
# PNT1A [38] = test: Increase in cytokine-cytokine receptor interaction related gene expression in human PNT1A cells at 10 uM incubated for 8 hrs by Affymetrix human exon array relative to untreated control; type: functional
# PC-3 [39] = test: Induction of p21 protein expression in human PC3 cells at 50 uM incubated for 8 hrs by Western blotting relative to untreated control; type: functional, cell-based
# [40] = Induction of p21 protein expression in human PNT1A cells at 50 uM incubated for 8 hrs by Western blotting; type: cell-based
smiles,measurement,setting,value
S=C=NCCc1ccccn1,fold change (FC),PC-3 [1],2.8
same,fold change (FC),PC-3 [2],1.9
same,IC50,PC-3 [3],12.8 µM
same,fold change (FC),PC-3 [4],1.8
same,fold change (FC),PC-3 [5],1.6
same,Activity,[6],Non-toxic
same,fold change (FC),PNT1A [7],3.6
same,IC50,HepG2,15.3 µM
same,fold change (FC),PNT1A [8],1.9
same,fold change (FC),PC-3 [9],1.8
same,inhibition at 10 µM,PC-3 [10],> 80%
same,fold change (FC),PC-3 [11],2.1
same,fold change (FC),PC-3 [12],2.1
same,fold change (FC),PC-3 [13],1.6
same,fold change (FC),PC-3 [14],1.6
same,IC50,DU-145,4.44 µM
same,fold change (FC),PC-3 [15],2.4
same,fold change (FC),PC-3 [16],1.6
same,fold change (FC),PC-3 [17],1.6
same,fold change (FC),PC-3 [18],1.9
same,fold change (FC),PNT1A [19],2.5
same,fold change (FC),PNT1A [20],2.8
same,fold change (FC),PC-3 [21],1.5
same,fold change (FC),PC-3 [22],8
same,fold change (FC),PC-3 [23],3.1
same,fold change (FC),PC-3 [24],1.6
same,fold change (FC),PC-3 [25],2
same,Activity,[26],Non-toxic
same,fold change (FC),PC-3 [27],2.6
same,fold change (FC),PC-3 [28],1.8
same,fold change (FC),PC-3 [29],1.9
same,fold change (FC),PC-3 [30],1.8
same,fold change (FC),PC-3 [31],2.6
same,fold change (FC),PNT1A [32],3.1
same,IC50,Caco-2,15.2 µM
same,Activity,[33],Active
same,fold change (FC),PC-3 [34],1.5
same,fold change (FC),PC-3 [35],1.9
same,Activity,[36],Active
C[S+]([O-])CCCCN=C=S (stereo not drawn) [SULFORAPHANE],IC50,PC-3 [3],32.4 µM
same,Activity,[6],Non-toxic
same,fold change (FC),PNT1A [7],4.3
same,IC50,HepG2,24.9 µM
same,inhibition,PC-3 [37],Active
same,IC50,DU-145,13.8 µM
same,fold change (FC),PNT1A [38],3.3
same,fold change (FC),PNT1A [19],4.8
same,Activity,[26],Non-toxic
same,IC50,Caco-2,79.8 µM
same,Activity,[33],Active
same,Activity,[36],Active
O=c1cc(N2CCOCC2)oc2c(-c3ccccc3)cccc12 [LY-294002],Activity,PC-3 [39],Active
same,Activity,[40],Toxic
